Results reported in patent publication US11466298B2, “Method for preparing phosphorylated keto polyols, derivatives thereof and uses thereof” (COMMISSARIAT A L'ENERGIE ATOMIQUE ET AUX ENERGIES …, priority 2017, dated 2022).

What was measured:
[1] = target: T1, aldolase (SEQ ID NO: 10), RhaD aldolase (Bacteroides thetaiotaomicron, UniProt Q8A1A0); test: Screening of ketones as acceptors with DHAP as donor, DHAP disappearance assay plus mass spectrometry; format: biochemical; settings: for DHAP disappearance (%): 10 eq of ketone, 8 μmol DHAP, CoCl2, pH 7.5, RT, 5 h, under Ar; for acceptor of the enzyme when DHAP is the donor: SEQ ID NO: 10
T1 construct: made in house
T1 sequence (Q8A1A0 whole entry, change not shown): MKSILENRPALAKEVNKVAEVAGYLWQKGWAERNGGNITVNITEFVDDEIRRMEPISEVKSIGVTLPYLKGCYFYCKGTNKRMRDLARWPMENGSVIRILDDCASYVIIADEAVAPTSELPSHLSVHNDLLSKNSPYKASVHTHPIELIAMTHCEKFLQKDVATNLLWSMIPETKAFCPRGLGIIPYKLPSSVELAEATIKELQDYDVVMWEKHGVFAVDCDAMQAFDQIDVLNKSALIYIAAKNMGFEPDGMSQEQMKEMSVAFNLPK
Procedure: Enzyme corresponding to SEQ ID No 10 was purified for deeper characterization and a scale up was performed to analyze the new branched sugars. This aldolase was tested with DHAP as donor and various ketones under argon conditions to avoid oxidation of DHAP and cobalt ion (CoCl2) to optimize the activity. Conversion of the various reactions was determined by assaying DHAP disappearance using triose-phosphate-isomerase coupled with ca-glycerophosphate dehydrogenase enzymes. In addition the products of those reactions were analyzed by mass spectrometry. When the data from the two systems are in agreement, the compound is considered to be substrate of the enzyme.
(§1) Prior to the reaction, all the solutions and solids were degased by bubbling or circulating Ar. Under an Ar atmosphere, 1 mg of aldolase (SEQ ID NO: 10, 6.5 U), 8 μmol of DHAP (123 μL of 65 mM solution), 8 μL CoCl2 (10 mM), 10 eq of electrophile (selected ketone) and water to reach 200 μL final volume were added in a vial. The pH was adjusted to 7.5. The reaction mixture was gently stirred at RT for 5 h. DHAP disappearance was followed spectrophotometrically. The aldolase was removed by filtration over ultra-centrifugal filter unit (Amicon, 10 kDa). The reaction medium was directly analyzed by mass spectrometry (liquid chromatography (Alliance 2695—Waters) coupled to high resolution mass spectrometry (Micromass Q-TOF—Waters)).

SEQ ID: 23 (FucA) = test: LC/MS Orbitrap validation of products from 6 ketones, FucA enzyme; format: biochemical, Kyrpidia tusciae; settings: 5 to 10 eq of ketone, CoCl2, pH 7.3, 5 h at RT, LC/MS detection
Procedure: (§2) A mother solution was prepared by mixing DHAP (5.2 mL, 35 mM), CoCl2 (200 μL, 10 mM), 5 to 10 eq of ketone, adjusted to pH 7.3 and degased under Ar. In 10 vials containing each 4 mg of enzyme to screen (beforehand degased under Ar) were added 400 μL of the mother solution. The reactions were gently stirred for 5 h at RT. The aldolase was removed by filtration over ultra-centrifugal filter unit (Amicon, 10 kDa). The reaction medium was analyzed by mass spectrometry.
(§3) The detection of the compounds of interest was performed by LC/ESI-MS method using a Dionex TCC-3000RS chromatographic system (Thermo Fisher Scientific, Courtaboeuf, France) coupled to an ultra-high resolution Orbitrap Elite hybrid mass spectrometer ((Thermo Fisher Scientific, Courtaboeuf, France) equipped with a HESI source.
(§4) A Sequant ZICpHILIC column […], 2.1×100 mm (Merck, Darmstadt, Germany) thermostated at 15° C. was employed for HPLC separation. Mobile phase flow rate was set at 0.2 ml/min, and injection volume was 5 μl. Aqueous solution of 10 mM (NH4)2CO3 (at a pH of 9.9 adjusted by NH4OH) was used as phase A and acetonitrile was used as solvent B. The following gradient conditions were applied for elution: 1 min equilibration step at 80% of phase B; 7 min linear gradient from 80 to 40% of phase B; 3 min isocratic elution at 40% of B, return to 80% of phase B in 3 min and a reconditioning step of 8.5 min.
(§5) Mass and product ion spectra were recorded in the ESI negative ion mode. Ion spray (IS) was set at −4.5 kV and capillary temperature at 275° C. Sheath gas, auxiliary gas and sweep gas flow rates were set at 60, 10 and 0 arbitrary units, respectively. The mass resolution power of the detector was 60000.
(§6) Raw data were manually inspected using the Qual-browser module of Xcalibur version 2.2 (Thermo Fisher Scientific, Courtaboeuf, France) for enzymes from SEQ ID NO:1 to 20 and SEQ ID NO:23 for DHAP+dihydroxyacetone, and for SEQ ID NO:1 to 10 for the other couples of reagents.

[2] = test system: enzymes of SEQ ID NO:1-10 (RhaD); test: LC/MS Orbitrap validation of products from 6 ketones, RhaD enzymes; format: biochemical; settings: 5 to 10 eq of ketone, CoCl2, pH 7.3, 5 h at RT, LC/MS detection
Procedure: as §2, §3, §4, §5, §6

[3] = target: RhaD of various microorganisms including E. coli (Escherichia coli, UniProt P32169); test: Substrate spectrum of RhaD aldolases with respect to ketones; format: biochemical
Chain of RhaD of various microorganisms including E. coli (P32169 whole entry): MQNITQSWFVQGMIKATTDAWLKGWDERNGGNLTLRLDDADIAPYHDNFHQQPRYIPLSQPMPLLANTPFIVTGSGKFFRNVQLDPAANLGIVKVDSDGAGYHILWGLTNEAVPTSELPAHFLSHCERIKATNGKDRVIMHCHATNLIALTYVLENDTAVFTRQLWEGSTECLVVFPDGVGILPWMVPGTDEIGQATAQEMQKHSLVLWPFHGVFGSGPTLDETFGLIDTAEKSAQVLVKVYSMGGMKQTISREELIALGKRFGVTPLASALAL

[4] = target: T2, L-tagatose 1.6 biP aldolase (TagA) of SEQ ID NO:35 (Escherichia coli, UniProt P0AB74); test: Aldol reaction of DHAP with dihydroxyacetone (DHA), TagA aldolase; format: biochemical; settings: 10 eq of DHA, CoCl2, pH 7.5, RT, 5 h
T2 construct: made in house
T2 sequence (P0AB74 whole entry): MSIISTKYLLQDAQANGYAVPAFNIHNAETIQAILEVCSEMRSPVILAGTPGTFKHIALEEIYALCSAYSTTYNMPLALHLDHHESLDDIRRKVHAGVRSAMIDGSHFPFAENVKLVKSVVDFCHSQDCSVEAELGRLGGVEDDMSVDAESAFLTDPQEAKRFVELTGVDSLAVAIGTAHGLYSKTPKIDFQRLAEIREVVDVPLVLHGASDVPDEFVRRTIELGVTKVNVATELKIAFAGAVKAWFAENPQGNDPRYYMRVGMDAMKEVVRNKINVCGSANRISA
Procedure: (§7) Aldolases were tested with DHAP as donor and DHA as acceptor. Cobalt ion (CoCl2) to was added to optimize the activity. Conversion of the reactions was determined by assaying DHAP disappearance using triose-phosphate-isomerase coupled with α-glycerophosphate dehydrogenase enzymes. In addition the products of those reactions were analyzed by mass spectrometry. When the data from the two systems are in agreement, DHA is considered to be substrate of the enzyme.
as §1, with “1” for “Prior to the reaction, all the solutions and solids were degased by bubbling or circulating Ar. Under an Ar atmosphere, 1”, “(RhaD, FucA or TagA),” for “(SEQ ID NO: 10, 6.5 U),”, “DHA” for “electrophile (selected ketone)”

[5] = test system: DHA aldolases (i.e. FSA of E. coli), deoc aldolase, class I DHAP aldolases and pyruvate aldolases; test: Aldol reaction of DHAP with DHA, aldolases not belonging to class II DHAP aldolases; format: biochemical; settings: data not shown
[6] = test system: L-fuculose-1-phosphate aldolase (FucA) of SEQ ID NO:22-23, and 26-34; test: Aldol reaction of DHAP with dihydroxyacetone (DHA), FucA aldolases; format: biochemical; settings: 10 eq of DHA, CoCl2, pH 7.5, RT, 5 h
Procedure: as §7
as §1, with “1” for “Prior to the reaction, all the solutions and solids were degased by bubbling or circulating Ar. Under an Ar atmosphere, 1”, “(RhaD, FucA or TagA),” for “(SEQ ID NO: 10, 6.5 U),”, “DHA” for “electrophile (selected ketone)”

[7] = test system: RhaD aldolases of SEQ ID NO:1 to SEQ ID NO:21; test: Aldol reaction of DHAP with dihydroxyacetone (DHA), RhaD aldolases; format: biochemical; settings: 10 eq of DHA, CoCl2, pH 7.5, RT, 5 h
Procedure: as §7
as §1, with “1” for “Prior to the reaction, all the solutions and solids were degased by bubbling or circulating Ar. Under an Ar atmosphere, 1”, “(RhaD, FucA or TagA),” for “(SEQ ID NO: 10, 6.5 U),”, “DHA” for “electrophile (selected ketone)”

Molecule | DHAP disappearance (%) [1] [%] | ability of the tested FucA to catalyze the reaction of DHAP with the ketone to form the expected product (SEQ ID: 23 (FucA)) | ability of the tested RhaD to catalyze the reaction of DHAP with the ketone to form the expected product [2] | also measured
CC(=O)C(C)O (stereo not drawn) | 96 |  |  | 
O=C(CO)Cc1ccccc1 | 71 |  |  | 
CC(=O)CC(C)=O | 83 |  |  | 
CC(=O)C(=O)O | 75 |  |  | 
O=C(CCl)CCl | 72 |  |  | 
CCC(=O)CO [1-hydroxybutanone] | 84 |  |  | 
O=C1CCCCC1O (stereo not drawn) [2-hydroxycyclohexanone] | 84 | able to catalyze | able to catalyze | 
CC(=O)CCO [4-hydroxybutan-2-one] |  |  |  | acceptor of the enzyme when DHAP is the donor [1]: not acceptors
O=C(CO)[C@@H](O)CO [L-erythrulose] | 100 | able to catalyze | able to catalyze | 
CC(=O)C(C)=O [butanedione] | 100 | able to catalyze | able to catalyze | 
O=C1CCCC1 [cyclopentanone] | 0 |  |  | acceptor of the enzyme when DHAP is the donor [1]: not acceptors; ability of RhaD to catalyze the reaction of DHAP with the ketone [3]: unable to catalyze
O=C(CO)CO [dihydroxyacetone] | 100 | able to catalyze | able to catalyze | ability of the enzyme to catalyse the reaction between DHAP and DHA [4]: same results; ability of the enzymes to catalyse the reaction between DHA and DHAP [5]: failed to catalyze; ability of the enzymes to catalyse the reaction between DHAP and DHA [6]: same results; ability of the enzymes to catalyse the reaction between DHAP and DHA [7]: able to catalyse
CC(=O)CCO [drawing 99] | 0 |  |  | 
O=C(O)C(=O)CO [hydroxypyruvate] | 92 | able to catalyze | able to catalyze | 
acetone | 0 |  |  | acceptor of the enzyme when DHAP is the donor [1]: not acceptors; ability of RhaD to catalyze the reaction of DHAP with the ketone [3]: unable to catalyze
butanone | 0 |  |  | acceptor of the enzyme when DHAP is the donor [1]: not acceptors; ability of RhaD to catalyze the reaction of DHAP with the ketone [3]: unable to catalyze
hydroxyacetone | 95 | able to catalyze | able to catalyze | 
